According to patent publication US20240083900A1, “PYRAZOLO[1,5-A]PYRAZINE DERIVATIVES AS BTK INHIBITORS” (BIOGEN MA INC., priority 2020, published 2024):
Like-named read-outs stand apart in the source and are kept apart here.

Columns and labels:
BTK = BTK (Homo sapiens (Human), UniProt Q06187); experiment: In Vitro BTK Kinase Assay: Btk-PolyGAT-LS Assay; type: biochemical; details: BTK enzyme 0.25 nM, ATP 10 μM, polyGAT 100 nM, 30 minutes incubation, TRF readout; read-out: IC50
Procedure, shortened: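 Human BTK activity was measured with final 10 μM ATP and 100 nM polyGAT substrate in pH 7.5 Tris buffer with 10 mM MgCl2, DTT, Triton X-100 and casein.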

[1] = test system: CD69 expression on CD19+ B cells in human whole blood stimulated with anti-human IgD; experiment: In Vitro whole blood CD69 Assay; type: cell-based
[2] = human heparinized whole blood, anti-human IgD stimulation overnight, percentage of CD19+ B cells expressing CD69, flow cytometry, read-out: IC50
[3] = Homo sapiens, B-cell, human heparinized whole blood, anti-human IgD stimulation overnight, percentage of CD19+ B cells expressing CD69, flow cytometry, read-out: IC50

BTK, sequence (Q06187 whole entry): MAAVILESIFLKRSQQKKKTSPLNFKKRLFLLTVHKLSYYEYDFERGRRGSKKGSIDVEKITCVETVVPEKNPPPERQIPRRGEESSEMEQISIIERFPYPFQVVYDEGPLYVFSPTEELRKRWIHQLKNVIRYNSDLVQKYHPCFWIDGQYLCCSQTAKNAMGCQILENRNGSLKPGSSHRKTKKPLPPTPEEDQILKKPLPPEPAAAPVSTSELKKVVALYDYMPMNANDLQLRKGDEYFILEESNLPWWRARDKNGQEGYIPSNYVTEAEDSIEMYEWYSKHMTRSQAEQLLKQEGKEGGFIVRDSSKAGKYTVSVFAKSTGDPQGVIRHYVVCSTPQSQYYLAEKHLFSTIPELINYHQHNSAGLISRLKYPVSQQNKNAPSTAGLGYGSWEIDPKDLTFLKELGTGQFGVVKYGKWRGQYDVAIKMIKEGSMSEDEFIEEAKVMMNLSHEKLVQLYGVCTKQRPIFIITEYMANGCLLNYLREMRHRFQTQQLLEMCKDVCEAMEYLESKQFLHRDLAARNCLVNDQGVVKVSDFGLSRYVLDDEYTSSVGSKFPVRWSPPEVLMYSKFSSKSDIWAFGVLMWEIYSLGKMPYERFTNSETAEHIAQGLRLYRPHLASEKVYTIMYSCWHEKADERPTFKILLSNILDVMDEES

SMILES | IC50 (BTK) [nM] | IC50 [1, 2] [nM] | IC50 [1, 3] [nM] | IC50 ([1]; Homo sapiens, B-cell) [nM]
C=CC(=O)N1C[C@H]2C[C@@H](C1)[C@@H]2COc1nc(-c2cnn(C)c2)cn2nccc12 [Example 127, 1-((1R,5S,6r)-6-(((6-(1-methyl-1H-pyrazol-4-yl)pyrazolo[1,5-a]pyrazin-4-yl)oxy)methyl)-3-azabicyclo[3.1.1]heptan-3-yl)prop-2-en-1-one] | < 1 | 1000 to 10000 | – | –
C=CC(=O)N1CC[C@@H]2[C@@H](Oc3nc(-c4cnn(C)c4)cn4nccc34)C(C)(C)[C@@H]21 [Example 169, 1-((1R,5S,6R)-7,7-dimethyl-6-((6-(1-methyl-1H-pyrazol-4-yl)pyrazolo[1,5-a]pyrazin-4-yl)oxy)-2-azabicyclo[3.2.0]heptan-2-yl)prop-2-en-1-one] | 1 to 10 | – | 1000 to 10000 | –
C#CC(=O)N1CCC[C@H](Oc2nc(-c3cnn(C)c3)cn3nccc23)CC1 [Example 31, (S)-1-(4-((6-(1-methyl-1H-pyrazol-4-yl)pyrazolo[1,5-a]pyrazin-4-yl)oxy)azepan-1-yl)prop-2-yn-1-one] | < 1 | – | 1000 to 10000 | –
C=CC(=O)N(C)[C@H]1C[C@@H](Oc2nc(-c3cnn(C)c3)cn3ncc(F)c23)C1 [Example 63, N-((cis)-3-((3-fluoro-6-(1-methyl-1H-pyrazol-4-yl)pyrazolo[1,5-a]pyrazin-4-yl)oxy)cyclobutyl)-N-methylacrylamide] | < 1 | – | > 10000 | –
CC#CC(=O)N1CC(C)(C)OC(C)(COc2nc(-c3cnn(C)c3)cn3nccc23)C1 (single isomer, unassigned) [Example 121, 1-(2,2,6-trimethyl-6-(((6-(1-methyl-1H-pyrazol-4-yl)pyrazolo[1,5-a]pyrazin-4-yl)oxy)methyl)morpholino)but-2-yn-1-one] | 1 to 10 | – | < 1000 | –
CC#CC(=O)N[C@H]1CC[C@@H](Oc2nc(-c3cnn(C)c3)cn3ncc(F)c23)C1 [Example 95, N-((1S,3R)-3-((3-fluoro-6-(1-methyl-1H-pyrazol-4-yl)pyrazolo[1,5-a]pyrazin-4-yl)oxy)cyclopentyl) but-2-ynamide] | < 1 | – | < 1000 | –
C=CC(=O)N(C)CCOc1nc(-c2cnn(C)c2)cn2nccc12 [Example 183, N-methyl-N-(3-((6-(1-methyl-1H-pyrazol-4-yl)pyrazolo[1,5-a]pyrazin-4-yl)oxy)ethyl)acrylamide] | 1 to 10 | – | 1000 to 10000 | –
CC#CC(=O)N(C)[C@@H]1C[C@@H]2C[C@H]1[C@@H](Oc1nc(-c3cnn(C)c3)cn3nccc13)C2 (racemic) [Example 123, N-methyl-N-((1S,2S,4R,6R)-6-((6-(1-methyl-1H-pyrazol-4-yl)pyrazolo[1,5-a]pyrazin-4-yl)oxy)bicyclo[2.2.1]heptan-2-yl)but-2-ynamide and N-methyl-N-((1R,2R,4S,6S)-6-((6-(1-methyl-1H-pyrazol-4-y)pyrazolo[1,5-a]pyrazin-4-yl)oxy)bicyclo[2.2.1]heptan-2-y)but-2-ynamide] | 1 to 10 | 1000 to 10000 | – | –
C#CC(=O)N1CC[C@@H](Oc2nc(-c3cnn(C)c3)cc3nccn23)C1 [Example 39, (R)-1-(3-((7-(1-methyl-1H-pyrazol-4-yl)imidazo[1,2-c]pyrimidin-5-yl)oxy)pyrrolidin-1-yl)prop-2-yn-1-one] | 10 to 1000 | – | 1000 to 10000 | –
C=CS(=O)(=O)N1CCC[C@@H](Oc2nc(-c3cnn(C)c3)cn3nccc23)C1 [Example 5, (R)-6-(1-methyl-1H-pyrazol-4-yl)-4-((1-(vinylsulfonyl)piperidin-3-yl)oxy)pyrazolo[1,5-a]pyrazine] | < 1 | – | > 10000 | –
CN[C@H]1C[C@@](C)(Oc2nc(-c3cnn(C)c3)cn3nccc23)C1(C)C (racemic) [Example 139, racemic (1S,3R)—N,2,2,3-tetramethyl-3-((6-(1-methyl-1H-pyrazol-4-yl)pyrazolo[1,5-a]pyrazin-4-yl)oxy)cyclobutan-1-amine] | < 1 | < 1000 | – | –
CC#CC(=O)N(C)[C@@H]1CC[C@H]2C[C@@]2(Oc2nc(-c3cnn(C)c3)cn3nccc23)C1 (single isomer, unassigned) [Example 115] | 1 to 10 | – | 1000 to 10000 | –
C=CC(=O)N(C)c1ccc(F)c(Oc2nc(-c3cnn(C)c3)cn3nccc23)c1 [Example 130, N-(4-fluoro-3-((6-(1-methyl-1H-pyrazol-4-yl)pyrazolo[1,5-a]pyrazin-4-yl)oxy)phenyl)-N-methylacrylamide] | 1 to 10 | – | 1000 to 10000 | –
CC#CC(=O)N[C@H]1CCC[C@@H](Oc2nc(-c3cnn(C)c3)cn3nccc23)C1 [Example 179, N-((1S,3R)-3-((6-(1-methyl-1H-pyrazol-4-yl)pyrazolo[1,5-a]pyrazin-4-yl)oxy)cyclohexyl)but-2-ynamide] | < 1 | – | < 1000 | –
C=CC(=O)N1[C@H]2CC[C@@H]1[C@H](Oc1nc(-c3cnn(C)c3)cn3nccc13)C2 [Example 234, 1-((1R,2R,4S)-2-((6-(1-methyl-1H-pyrazol-4-yl)pyrazolo[1,5-a]pyrazin-4-yl)oxy)-7-azabicyclo[2.2.1]heptan-7-yl)prop-2-en-1-one] | < 1 | – | 1000 to 10000 | –
C=CC(=O)N1CC[C@@]2(CC[C@@H](Oc3nc(-c4cnn(C)c4)cn4nccc34)C2)C1 (single isomer, unassigned) [Example 207] | 1 to 10 | – | 1000 to 10000 | –
C=CS(=O)(=O)N1CCC[C@H](Oc2nc(-c3cnn(C)c3)cn3nccc23)CC1 [Example 33, (S)-6-(1-methyl-1H-pyrazol-4-yl)-4-((1-(vinylsulfonyl)azepan-4-yl)oxy)pyrazolo[1,5-a]pyrazine] | 1 to 10 | – | 1000 to 10000 | –
C=CC(=O)N1CCCC[C@H](Oc2nc(-c3cnn(C)c3)cn3nccc23)C1 [Example 55, (S)-1-(3-((6-(1-methyl-1H-pyrazol-4-yl)pyrazolo[1,5-a]pyrazin-4-yl)oxy)azepan-1-yl)prop-2-en-1-one] | 10 to 1000 | – | > 10000 | –
C=CC(=O)N1CCC[C@@](F)(COc2nc(-c3cnn(C)c3)cn3nccc23)C1 [Example 188, (S)-1-(3-fluoro-3-(((6-(1-methyl-1H-pyrazol-4-yl)pyrazolo[1,5-a]pyrazin-4-yl)oxy)methyl)piperidin-1-yl)prop-2-en-1-one] | 1 to 10 | – | < 1000 | –
CC#CC(=O)N(C)C12COCC(Oc3nc(-c4cnn(C)c4)cn4nccc34)(C1)C2 [Example 100, N-methyl-N-(5-((6-(1-methyl-1H-pyrazol-4-yl)pyrazolo[1,5-a]pyrazin-4-yl)oxy)-3-oxabicyclo[3.1.1]heptan-1-yl)but-2-ynamide] | < 1 | – | < 1000 | –
C=CC(=O)N(C)[C@H]1CC[C@@H]1COc1nc(-c2cnn(C)c2)cn2nccc12 (relative stereo) [Example 129, trans-N-methyl-N-(2-(((6-(1-methyl-1H-pyrazol-4-yl)pyrazolo[1,5-a]pyrazin-4-yl)oxy)methyl)cyclobutyl)acrylamide] | 10 to 1000 | – | 1000 to 10000 | –
C=CS(=O)(=O)N1CC[C@@H](Oc2nc(-c3cnn(C)c3)cn3nccc23)C1 [Example 12, (R)-6-(1-methyl-1H-pyrazol-4-yl)-4-((1-(vinylsulfonyl)pyrrolidin-3-yl)oxy)pyrazolo[1,5-a]pyrazine] | 1 to 10 | – | > 10000 | –
C=CC(=O)NC12CCC(Oc3nc(-c4cnn(C)c4)cn4nccc34)(CC1)C2 [Example 125, N-(4-((6-(1-methyl-1H-pyrazol-4-yl)pyrazolo[1,5-a]pyrazin-4-yl)oxy)bicyclo[2.2.1]heptan-1-yl)acrylamide] | 1 to 10 | – | 1000 to 10000 | –
C=CC(=O)N1C[C@@H]2C[C@@](C)(Oc3nc(-c4cnn(C)c4)cn4nccc34)[C@@H]2C1 [Example 199, 1-((1R,5S,6R)-6-methyl-6-((6-(1-methyl-1H-pyrazol-4-yl)pyrazolo[1,5-a]pyrazin-4-yl)oxy)-3-azabicyclo[3.2.0]heptan-3-yl)prop-2-en-1-one] | – | – | 1000 to 10000 | –
C=CC(=O)N1CCC[C@@H](Oc2nc(-c3cnn(C)c3)cn3nccc23)C1 [Example 4, (R)-1-(3-((6-(1-methyl-1H-pyrazol-4-yl)pyrazolo[1,5-a]pyrazin-4-yl)oxy)piperidin-1-yl)prop-2-en-1-one] | – | – | > 10000 | –
C=CC(=O)N(C)[C@H]1C[C@@](C)(Oc2nc(-c3cnn(C)c3)cc3nccn23)C1 [Example 236, N-methyl-N-((1s,3s)-3-methyl-3-((7-(1-methyl-1H-pyrazol-4-yl)imidazo[1,2-c]pyrimidin-5-yl)oxy)cyclobutyl)acrylamide] | – | – | – | < 1000
C=CC(=O)N(C)C12CCC(Oc3nc(-c4cnn(C)c4)cn4nccc34)(C1)C2 [Example 99, N-methyl-N-(4-((6-(1-methyl-1H-pyrazol-4-yl)pyrazolo[1,5-a]pyrazin-4-yl)oxy)bicyclo[2.1.1]hexan-1-yl)acrylamide] | – | – | < 1000 | –
C=CC(=O)N(C)[C@H]1C[C@@H](Oc2nc(-c3cnn(C)c3)cn3nccc23)C1 [Example 215, N-methyl-N-((cis)-3-((6-(1-methyl-1H-pyrazol-4-yl)pyrazolo[1,5-a]pyrazin-4-yl)oxy)cyclobutyl)acrylamide] | – | – | 1000 to 10000 | –
C=CC(=O)N1C[C@H]2C[C@@H](Oc3nc(-c4cnn(C)c4)cn4nccc34)C[C@@H]1C2 [Example 167, 1-((1R,3R,5S)-3-((6-(1-methyl-1H-pyrazol-4-yl)pyrazolo[1,5-a]pyrazin-4-yl)oxy)-6-azabicyclo[3.2.1]octan-6-yl)prop-2-en-1-one] | – | – | < 1000 | –
C=CC(=O)N(C)[C@H]1CCC[C@@H](Oc2nc(-c3cnn(C)c3)cn3nccc23)C1 [Example 175, N-methyl-N-((1S,3R)-3-((6-(1-methyl-1H-pyrazol-4-yl)pyrazolo[1,5-a]pyrazin-4-yl)oxy)cyclohexyl)acrylamide] | – | – | < 1000 | –
